Measured values reported in article PMC5607094 (Biochemical pharmacology, 2017).

Assays:
[1] = biological target: T1, FPR1 (Homo sapiens, UniProt P21462); assay: fMLF-induced Ca2+ flux in human neutrophils; assay type: cell-based
T1 sequence (P21462 1-350): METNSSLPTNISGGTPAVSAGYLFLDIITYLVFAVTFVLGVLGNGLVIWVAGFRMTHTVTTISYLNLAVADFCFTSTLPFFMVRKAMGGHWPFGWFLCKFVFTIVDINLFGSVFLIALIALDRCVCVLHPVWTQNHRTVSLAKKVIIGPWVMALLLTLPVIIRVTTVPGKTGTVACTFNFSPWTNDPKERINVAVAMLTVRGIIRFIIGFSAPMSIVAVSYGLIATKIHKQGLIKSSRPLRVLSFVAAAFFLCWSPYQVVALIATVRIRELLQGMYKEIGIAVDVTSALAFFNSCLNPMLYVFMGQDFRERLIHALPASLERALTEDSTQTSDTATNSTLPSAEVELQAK

[2] = system: human neutrophils; assay: fMLF-induced neutrophil chemotaxis; assay type: cell-based; conditions: read-out: Chemotaxis PMN (+ fMLF) IC50
[3] = biological target: T1, FPR1; assay: fMLF-induced Ca2+ mobilization in FPR1-HL60 cells; assay type: cell-based; conditions: for Activity class: Active / N.A. = no activity at highest concentration tested in Ca2+ flux assay (50 µM); for FPR1 antagonist activity: fMLF-induced Ca2+ mobilization in FPR1-HL60 cells
[4] = system: human neutrophils; assay: fMLF-induced neutrophil adhesion to T84 epithelial cells; assay type: cell-based; conditions: read-out: Adhesion PMN (+ fMLF) IC50
[5] = system: ERK1/2; assay: ERK1/2 phosphorylation in DMSO-differentiated neutrophil-like HL60 cells; assay type: cell-based, human; conditions: for Inhibition of fMLF-induced phosphorylation of ERK1/2: DMSO-differentiated HL60 cells, 10 min pretreatment, 20 nM fMLF 5 min; for Inhibition of fMLF-induced ERK phosphorylation: cell type not stated in the sentence (Discussion)
[6] = system: ERK1/2; assay: ERK1/2 phosphorylation in human neutrophils; assay type: cell-based; conditions: 10 min pretreatment, 10 nM fMLF
[7] = system: ERK1/2; assay: ERK1/2 phosphorylation in FPR1-RBL cells; assay type: cell-based, rat; conditions: FPR1-RBL cells (Figure 5B; text prints FPR1-HL60), 20 nM fMLF
[8] = biological target: T2, FPR2 (Homo sapiens, UniProt P25090); assay: Ca2+ mobilization in FPR2-HL60 cells
T2 sequence (P25090 1-351): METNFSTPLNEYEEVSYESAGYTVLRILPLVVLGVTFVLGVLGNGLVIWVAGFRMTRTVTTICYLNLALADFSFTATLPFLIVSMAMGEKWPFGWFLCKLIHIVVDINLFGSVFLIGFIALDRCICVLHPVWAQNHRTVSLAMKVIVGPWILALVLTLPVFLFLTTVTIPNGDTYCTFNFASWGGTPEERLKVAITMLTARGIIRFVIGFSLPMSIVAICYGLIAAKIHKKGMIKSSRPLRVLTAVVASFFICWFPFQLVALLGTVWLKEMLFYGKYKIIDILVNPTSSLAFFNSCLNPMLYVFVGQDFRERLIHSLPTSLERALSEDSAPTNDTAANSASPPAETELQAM

[9] = biological target: T2, FPR2; assay: WKYMVM-induced Ca2+ flux in human neutrophils

| Structure (SMILES) | IC50 [1] [µM] | IC50 [2] [µM] | Activity class [3] | IC50 [4] [nM] | FPR1 antagonist activity [3] | IC50 [8] [µM] | IC50 [9] [nM] | Inhibition of fMLF-induced phosphorylation of ERK1/2 [5] | Inhibition of fMLF-induced ERK phosphorylation [5] | Inhibition of fMLF-induced phosphorylation of ERK1/2 [6] | Inhibition of fMLF-induced ERK1/2 phosphorylation [7] |
| --- | --- | --- | --- | --- | --- | --- | --- | --- | --- | --- | --- |
| COc1ccccc1C1C(C(=O)c2ccc(C)cc2)=C(O)C(=O)N1CC(C)O (centres unmarked) [Compound 6, 3-hydroxy-1-(2-hydroxypropyl)-5-(2-methoxyphenyl)-4-(4-methylbenzoyl)-2,5-dihydro-1H-pyrrol-2-one] | 12.4 ± 3.2 | 36.3 ± 4 |  |  |  |  |  |  |  |  |  |
| CCCCN1C(=O)C(O)=C(C(=O)c2ccc(OC)cc2)C1c1ccc(C)cc1 (centres unmarked) [Compound 5, 1-butyl-3-hydroxy-4-(4-methoxybenzoyl)-5-(4-methylphenyl)-2,5-dihydro-1H-pyrrol-2-one] | 26.7 ± 4.6 | 21.3 ± 7.6 | Active | 25800 ± 3200 |  |  |  |  |  |  |  |
| CCCCCCN1C(=O)C(O)=C(C(=O)c2ccc(C)cc2)C1c1ccc(OC)cc1OC (centres unmarked) [Compound 15, 5-(2,4-dimethoxyphenyl)-1-hexyl-3-hydroxy-4-(4-methylbenzoyl)-2,5-dihydro-1H-pyrrol-2-one] | 3.8 ± 1.8 | 12.8 ± 4.8 | Active |  | highly active FPR1 antagonists | 6.5 ± 0.9 | 1700 ± 100 |  | inhibited |  |  |
| CCCN1C(=O)C(O)=C(C(=O)c2ccccc2)C1c1cc(OC)ccc1OC (centres unmarked) [Compound 4, 4-benzoyl-5-(2,5-dimethoxyphenyl)-3-hydroxy-1-propyl-2,5-dihydro-1H-pyrrol-2-one] | 10.7 ± 2.5 | 6.3 ± 2.2 | Active | 2900 ± 1100 |  |  |  |  |  |  |  |

The remaining compounds from weak to strong by IC50 [1], led by results:

| IC50 [1] [µM] | IC50 [2] [µM] | Activity class [3] | IC50 [4] [nM] | FPR1 antagonist activity [3] | IC50 [8] [µM] | IC50 [9] [nM] | Structure (SMILES) | Inhibition of fMLF-induced phosphorylation of ERK1/2 [5] | Inhibition of fMLF-induced ERK phosphorylation [5] | Inhibition of fMLF-induced phosphorylation of ERK1/2 [6] | Inhibition of fMLF-induced ERK1/2 phosphorylation [7] |
| --- | --- | --- | --- | --- | --- | --- | --- | --- | --- | --- | --- |
| 6.7 ± 0.2 | 2.2 ± 1.2 | Active | 1100 ± 200 |  |  |  | COCCN1C(=O)C(O)=C(C(=O)c2ccccc2)C1c1cc(OC)ccc1OC (centres unmarked) [Compound 17, 4-benzoyl-5-(2,5-dimethoxyphenyl)-3-hydroxy-1-(2-methoxyethyl)-2,5-dihydro-1H-pyrrol-2-one] | effectively inhibited | inhibited | effectively inhibited | inhibited |
| 5.2 ± 1.4 | 12.4 ± 4.2 | Active | 13300 ± 2700 | highly active FPR1 antagonists |  |  | COCCN1C(=O)C(O)=C(C(=O)c2ccc(C)cc2)C1c1cc(OC)ccc1OC (centres unmarked) [Compound 18, 5-(2,5-dimethoxyphenyl)-3-hydroxy-1-(2-methoxyethyl)-4-(4-methylbenzoyl)-2,5-dihydro-1H-pyrrol-2-one] |  |  |  |  |
| 4.8 ± 0.5 | 4.2 ± 1.3 | Active | 1600 ± 600 |  |  |  | CCCCCCN1C(=O)C(O)=C(C(=O)c2ccccc2)C1c1ccc(O)c(OC)c1 (centres unmarked) [Compound 14, 4-benzoyl-1-hexyl-3-hydroxy-5-(4-hydroxy-3-methoxyphenyl)-2,5-dihydro-1H-pyrrol-2-one] | effectively inhibited | inhibited | effectively inhibited | inhibited |
